Assay results: patent publication US20230053540A1, “TREATMENT OF LIVER INJURY” (Massachusetts Institute of Technology, priority 2019, published 2023)

Tested on: hepatocytes
Experiment: Seq-Well scRNA-Seq of hepatocytes after APAP overdose (signature scores, DEG vs untreated)
Format: in vivo, mouse
Settings: A6 vs UT

SMILES: CC(=O)Nc1ccc(O)cc1 [APAP, acetaminophen]
- Slc25a10 avg_logFC: −0.2828
- Slc25a10 pct.1: 0.351
- Slc25a47 avg_logFC: 0.4289
- Slc25a51 A6logFC: 0.264
- Slc25a51 avg_logFC: 0.264
- Slc25a51 pct.1: 0.308
- Slc26a1 A6logFC: −0.2817
- Slc26a1 avg_logFC: −0.2817
- Slc26a1 pct.1: 0.329
- Slc30a1 A6logFC: 0.2506
- Slc30a1 avg_logFC: 0.2506
- Slc30a1 pct.1: 0.346
- Slc35d1 A6logFC: 0.3094
- Slc35d1 avg_logFC: 0.3094
- Slc35d1 pct.1: 0.489
- Slc38a3 avg_logFC: −0.4098
- Slc38a3 pct.1: 0.663
- Slc39a14 avg_logFC: 1.013
- Slc40a1 avg_logFC: 0.467
- Slc40a1 pct.1: 0.456
- Slirp A6logFC: −0.3085
- Smoc1 A6logFC: 0.2616
- Smoc1 avg_logFC: 0.2616
- Smoc1 pct.1: 0.368
- Snx10 A6logFC: 0.2856
- Snx10 avg_logFC: 0.2856
- Snx10 pct.1: 0.341
- Sod1 avg_logFC: −0.4393
- Son avg_logFC: 0.5429
- Son pct.1: 0.601
- Sord avg_logFC: −0.3836
- Sord pct.1: 0.754
- Spag9 A6logFC: 0.3188
- Spag9 avg_logFC: 0.3188
- Spag9 pct.1: 0.415
- Spcs1 A6logFC: −0.2629
- Spcs1 avg_logFC: −0.2629
- Spcs1 pct.1: 0.236
- Spp2 avg_logFC: −0.3821
- Spp2 pct.1: 0.334
- Spred1 avg_logFC: 0.3884
- Spred1 pct.1: 0.308
- Sptan1 A6logFC: 0.3127
- Sptan1 avg_logFC: 0.3127
- Sptan1 pct.1: 0.348
- Sptbn1 avg_logFC: 0.4227
- Sptbn1 pct.1: 0.439
- Sqstm1 avg_logFC: 0.7432
- Srd5a1 A6logFC: −0.2773
- Srd5a1 avg_logFC: −0.2773
- Srd5a1 pct.1: 0.308
- Srgn avg_logFC: 0.9341
- Srrm2 A6logFC: 0.3282
- Srrm2 avg_logFC: 0.3282
- Srrm2 pct.1: 0.456
- Srxn1 avg_logFC: 1.878
- Ssr4 avg_logFC: −0.5076
- Ssr4 pct.1: 0.413
- St3gal1 avg_logFC: 0.5287
- St3gal4 A6logFC: 0.275
- St3gal4 avg_logFC: 0.275
- St3gal4 pct.1: 0.368
- St3gal5 avg_logFC: 0.6076
- Stard10 avg_logFC: −0.3383
- Stard10 pct.1: 0.876
- Stat3 avg_logFC: 0.7154
- Stbd1 A6logFC: −0.2732
- Steap4 avg_logFC: 0.4372
- Steap4 pct.1: 0.37
- Stk40 avg_logFC: 0.5364
- Suco A6logFC: 0.251
- Suco avg_logFC: 0.251
- Suco pct.1: 0.26
- Sult1a1 avg_logFC: 0.319
- Sult1a1 pct.1: 0.685
- Supt6 A6logFC: 0.2913
- Supt6 avg_logFC: 0.2913
- Supt6 pct.1: 0.291
- Swi5 A6logFC: −0.2621
- Swi5 avg_logFC: −0.2621
- Swi5 pct.1: 0.341
- Syncrip A6logFC: 0.2748
- Syncrip avg_logFC: 0.2748
- Syncrip pct.1: 0.365
- Tab2 A6logFC: 0.3484
- Tab2 avg_logFC: 0.3484
- Tab2 pct.1: 0.425
- Tacc2 avg_logFC: 0.3293
- Tacc2 pct.1: 0.289
- Tars avg_logFC: 0.4921
- Tars pct.1: 0.666
- Tatdn2 avg_logFC: 0.3733
- Tatdn2 pct.1: 0.334
- Tbc1d15 avg_logFC: 0.4886
- Tbc1d15 pct.1: 0.461
- Tbca A6logFC: −0.2726
- Tbca avg_logFC: −0.2726
- Tbca pct.1: 0.284
- Tcerg1 avg_logFC: 0.3575
- Tcerg1 pct.1: 0.305
- Tfpi2 avg_logFC: −0.3663
- Tfpi2 pct.1: 0.155
- Timm13 avg_logFC: −0.433
- Timm13 pct.1: 0.418
- Tiparp avg_logFC: 0.5456
- Tjp2 avg_logFC: 0.4115
- Tjp2 pct.1: 0.332
- Tln1 A6logFC: 0.321
- Tln1 avg_logFC: 0.321
- Tln1 pct.1: 0.31
- Tm4sf4 avg_logFC: 0.5126
- Tm4sf4 pct.1: 0.484
- Tmed5 avg_logFC: 0.4016
- Tmed5 pct.1: 0.594
- Tmem14c avg_logFC: −0.3685
- Tmem14c pct.1: 0.332
- Tmem37 A6logFC: −0.2822
- Tmem86b A6logFC: −0.2582
- Tmem87b avg_logFC: 0.4344
- Tmem87b pct.1: 0.351
- Tmem147 A6logFC: 0.2838
- Tmem150a A6logFC: −0.2535
- Tmem160 A6logFC: −0.339
- Tmem205 avg_logFC: −0.7747
- Tmem242 A6logFC: −0.2725
- Tmem256 avg_logFC: −0.5185
- Tmem256 pct.1: 0.375
- Tmem258 A6logFC: −0.2769
- Tmprss6 A6logFC: −0.2802
- Tmprss6 avg_logFC: −0.2802
- Tmprss6 pct.1: 0.551
- Tmsb4x avg_logFC: 0.7806
- Tnfrsf1a avg_logFC: 0.5996
- Tnfrsf12a avg_logFC: 1.118
- Tnks2 A6logFC: 0.3176
- Tns1 avg_logFC: 0.4349
- Tns1 pct.1: 0.403
- Tpi1 A6logFC: −0.2616
- Tpi1 avg_logFC: −0.2616
- Tpi1 pct.1: 0.539
- Tpr A6logFC: 0.4409
- Tra2a avg_logFC: 0.7123
- Trf avg_logFC: −0.2619
- Trf pct.1: 0.988
- Trib1 avg_logFC: 0.3317
- Trib1 pct.1: 0.411
- Trip11 A6logFC: 0.3479
- Trip11 avg_logFC: 0.3479
- Trip11 pct.1: 0.341
- Trp53inp1 avg_logFC: 1.008
- Tsc22d1 A6logFC: −0.2997
- Tsc22d2 avg_logFC: 0.3911
- Tsc22d2 pct.1: 0.353
- Tsku avg_logFC: 0.3676
- Tsku pct.1: 0.327
- Tspan31 A6logFC: −0.2959
- Tspan31 avg_logFC: −0.2959
- Tspan31 pct.1: 0.415
- Tspo A6logFC: −0.3157
- Tsr1 avg_logFC: 0.3603
- Tsr1 pct.1: 0.341
- Ttc36 avg_logFC: −0.6606
- Ttr avg_logFC: −0.5306
- Tubb2a avg_logFC: 0.7494
- Tubb6 avg_logFC: 0.5767
- Tyrobp avg_logFC: 0.4666
- Ubb A6logFC: −0.275
- Ubc avg_logFC: −0.6618
- Ubr4 A6logFC: 0.3301
- Ubr4 avg_logFC: 0.3301
- Ubr4 pct.1: 0.411
- Ubr5 A6logFC: 0.3057
- Ubr5 avg_logFC: 0.3057
- Ubr5 pct.1: 0.399
- Ugdh avg_logFC: 0.6331
- Ugt2b5 avg_logFC: −0.6034
- Ugt2b36 avg_logFC: −0.5834
- Ugt3a2 A6logFC: −0.2586
- Ugt3a2 avg_logFC: −0.2586
- Ugt3a2 pct.1: 0.492
- Uhrf1bp1l avg_logFC: 0.4198
- Uhrf1bp1l pct.1: 0.399
- Uox avg_logFC: −0.5531
- Upp2 avg_logFC: −0.6903
- Uqcr10 avg_logFC: −0.4519
- Uqcr10 pct.1: 0.561
- Uqcr11 avg_logFC: −0.6031
- Uqcrb avg_logFC: −0.4084
- Uqcrb pct.1: 0.425
- Uqcrh avg_logFC: −0.4292
- Uqcrh pct.1: 0.589
- Urah avg_logFC: −0.7641
- Usp4 avg_logFC: 0.28
- Usp4 pct.1: 0.439
- Usp7 A6logFC: 0.2873
- Usp7 avg_logFC: 0.2873
- Usp7 pct.1: 0.363
- Usp9x avg_logFC: 0.3184
- Usp9x pct.1: 0.451
- Usp34 A6logFC: 0.2859
- Usp34 avg_logFC: 0.2859
- Usp34 pct.1: 0.37
